{
  "source": "patent US20220332700A1",
  "about": "“NOVEL APOPTOSIS SIGNAL-REGULATING KINASE 1 INHIBITORS” (MANKIND PHARMA LTD, priority 2019, published 2022)",
  "data": [
    {"target": "T1, recombinant ASK1 (Homo sapiens, UniProt Q99683)", "T1 construct": "purchased Carna Biosciences", "T1 sequence (Q99683 654-971 limits assumed)": "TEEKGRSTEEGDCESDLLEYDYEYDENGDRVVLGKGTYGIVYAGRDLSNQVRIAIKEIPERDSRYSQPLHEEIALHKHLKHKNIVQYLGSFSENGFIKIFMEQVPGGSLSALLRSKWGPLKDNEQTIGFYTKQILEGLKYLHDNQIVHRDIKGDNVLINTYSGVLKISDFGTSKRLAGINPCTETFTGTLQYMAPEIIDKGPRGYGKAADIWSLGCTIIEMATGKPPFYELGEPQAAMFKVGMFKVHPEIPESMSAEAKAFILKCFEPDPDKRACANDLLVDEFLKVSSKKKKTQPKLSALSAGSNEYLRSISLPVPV", "test": "ASK1 Biochemical Assay (HTRF KinEASE-STK S3)", "details": "ATP 100 μM; read-out: Biochemical Assay IC50", "method": "ASK1 biochemical assay was standardized using recombinant ASK1 (Carna Biosciences), substrate and detection reagents from Cisbio HRTF KinEASE-STK S3 kit. Enzyme concentration, ATP, biotinylated STK substrate and STK antibodies were titrated for enzyme assay. Assay was carried out in ASK1 kinase buffer, 10 mM MOPS pH-7, 10 mM Mg-acetate, 1 mM DTT, 0.025% NP40, 1.5% glycerol and 0.05% BSA. DMSO was used as vehicle control with a final concentration of 1%. A 5 ng of ASK1 enzyme was incubated with compound for 1 hour at 23° C. on a shaker at 100rpm. ATP and biotin substrate was added at a final concentration of 100 μM and 1 μM and incubated for 3 hours at 23° C. on a shaker at 100rpm. […] Delta F ratios were calculated from data obtained at excitation (337 nm) and emission wavelengths (665 nm and 620-10 nm). Substrate blank values was considered as negative control. Values from negative control was substrated from vehicle control and compound treated wells. Enzyme inhibition by compounds were calculated from vehicle controls, which represent uninterrupted enzyme's activity.", "units": {"IC50": "nM"}, "values": [
      {"smiles": "CC(C)n1cnnc1-c1cccc(N2CCN(c3ccc(O)cc3)C2=O)n1", "note": "[Example 1030, 1-(4-hydroxyphenyl)-3-(6-(4-isopropyl-4H-1,2,4-triazol-3-yl)pyridin-2-yl)imidazolidin-2-one]", "IC50": "> 1000"},
      {"smiles": "COc1cc(C)c(S(C)(=O)=O)cc1N1CCN(c2cccc(-c3nncn3C(C)C)n2)C1=O", "note": "[Example 1031, 1-(6-(4-isopropyl-4H-1,2,4-triazol-3-yl)pyridin-2-yl)-3-(2-methoxy-4-methyl-5-(methylsulfonyl)phenyl)imidazolidin-2-one]", "IC50": "> 1000"},
      {"smiles": "CC(C)n1cnnc1-c1cccc(N2CCN(c3ccc(C(F)(F)F)cc3)C2=O)n1", "note": "[Example 1033, 1-(4-(trifluoromethyl)phenyl)-3-(6-(4-isopropyl-4H-1,2,4-triazol-3-yl)pyridin-2-yl)imidazolidin-2-one]", "IC50": "> 100"},
      {"smiles": "Cc1cc(S(C)(=O)=O)ccc1N1CCN(c2cccc(-c3nncn3C(C)C)n2)C1=O", "note": "[Example 1042, 1-(6-(4-isopropyl-4H-1,2,4-triazol-3-yl)pyridin-2-yl)-3-(2-methyl-4-(methylsulfonyl)phenyl)imidazolidin-2-one]", "IC50": "> 100"},
      {"smiles": "CC(C)n1cnnc1-c1cccc(N2CCN(c3ccc4nc(NC5CC5)sc4c3)C2=O)n1", "note": "[Example 1046, N-cyclopropyl-6-(3-(6-(4-isopropyl-4H-1,2,4-triazol-3-yl)pyridin-2-yl)-2-oxoimidazolidin-1-yl)benzo[d]thiazol-2-aminium 2,2,2-trifluoroacetate]", "IC50": "> 100"},
      {"smiles": "CC(C)n1cnnc1-c1cccc(N2CCN(c3ccc(S(C)(=O)=O)c(N4CCCC4)c3)C2=O)n1", "note": "[Example 1058, 1-(6-(4-isopropyl-4H-1,2,4-triazol-3-yl)pyridin-2-yl)-3-(4-(methylsulfonyl)-3-(pyrrolidin-1-yl)phenyl)imidazolidin-2-one]", "IC50": "> 100"},
      {"smiles": "CC(C)n1cnnc1-c1cccc(N2CCN(c3ccc(F)c(C4CC4)c3)C2=O)n1", "note": "[Example 1060, 1-(3-cyclopropyl-4-fluorophenyl)-3-(6-(4-isopropyl-4H-1,2,4-triazol-3-yl)pyridin-2-yl)imidazolidin-2-one]", "IC50": "< 100"},
      {"smiles": "CC(C)c1cc(N2CCN(c3cccc(-c4nncn4C(C)C)n3)C2=O)ccc1S(C)(=O)=O", "note": "[Example 1062, 1-(3-isopropyl-4-(methylsulfonyl)phenyl)-3-(6-(4-isopropyl-4H-1,2,4-triazol-3-yl)pyridin-2-yl)imidazolidin-2-one]", "IC50": "> 1000"},
      {"smiles": "CC(C)n1cnnc1-c1ccc(N2CCN(c3ccc(S(C)(=O)=O)cc3)C2=O)nc1", "note": "[Example 1064, 1-(5-(4-isopropyl-4H-1,2,4-triazol-3-yl)pyridin-2-yl)-3-(4-(methylsulfonyl)phenyl)imidazolidin-2-one]", "IC50": "> 100"},
      {"smiles": "CC(C)n1cnnc1-c1cccc(N2CCN(c3ccc(S(C)(=O)=O)cc3)C2=O)n1", "note": "[Example 1065, 1-(6-(4-isopropyl-4H-1,2,4-triazol-3-yl)pyridin-2-yl)-3-(4-(methylsulfonyl)phenyl)imidazolidin-2-one]", "IC50": "> 1000"},
      {"smiles": "CC(C)n1cnnc1-c1cccc(N2CCN(c3ccc(N4CCC(C)(C)CC4)cc3)C2=O)n1", "note": "[Example 1070, 1-(6-(4-isopropyl-4H-1,2,4-triazol-3-yl)pyridin-2-yl)-3-(4-(4,4-dimethylpiperidin-1-yl)phenyl)imidazolidin-2-one]", "IC50": "< 100"},
      {"smiles": "CC(C)n1cnnc1-c1cccc(N2CCN(c3ccc(N4CCC(O)CC4)nc3)C2=O)n1", "note": "[Example 1072, 1-(6-(4-hydroxypiperidin-1-yl)pyridin-3-yl)-3-(6-(4-isopropyl-4H-1,2,4-triazol-3-yl)pyridin-2-yl)imidazolidin-2-one]", "IC50": "> 100"},
      {"smiles": "Cc1cc(N2CCN(c3cccc(-c4nncn4C(C)C)n3)C2=O)ccc1N1CCOCC1", "note": "[Example 1079, 1-(6-(4-isopropyl-4H-1,2,4-triazol-3-yl)pyridin-2-yl)-3-(3-methyl-4-morpholinophenyl)imidazolidin-2-one]", "IC50": "< 100"},
      {"smiles": "CC(C)n1cnnc1-c1cccc(N2CCN(c3ccc(N4[C@H](C)COC[C@H]4C)cc3)C2=O)n1", "note": "[Example 1086, 1-(6-(4-isopropyl-4H-1,2,4-triazol-3-yl)pyridin-2-yl)-3-(4-((3R,5R)-3,5-dimethylmorpholino)phenyl)imidazolidin-2-one]", "IC50": "< 100"},
      {"smiles": "CC(C)n1cnnc1-c1cccc(N2CCN(c3ccc(N4CC(O)(C(C)C)C4)cc3)C2=O)n1", "note": "[Example 1089, 1-(4-(3-hydroxy-3-isopropylazetidin-1-yl)phenyl)-3-(6-(4-isopropyl-4H-1,2,4-triazol-3-yl)pyridin-2-yl)imidazolidin-2-one]", "IC50": "< 100"},
      {"smiles": "CC(C)n1cnnc1-c1cccc(N2CCN(C)C2=O)n1", "note": "[Example 1099, 1-(6-(4-isopropyl-4H-1,2,4-triazol-3-yl)pyridin-2-yl)-3-methylimidazolidin-2-one]", "IC50": "< 100"},
      {"smiles": "CC(C)n1cnnc1-c1cccc(N2CCN(c3ccc(N4CCCC4)cc3)C2=O)n1", "note": "[Example 1100, 1-(6-(4-isopropyl-4H-1,2,4-triazol-3-yl)pyridin-2-yl)-3-(4-(pyrrolidin-1-yl)phenyl)imidazolidin-2-one]", "IC50": "< 100"},
      {"smiles": "CC(C)n1cnnc1-c1cccc(N2CCN(c3cnc(S(C)(=O)=O)nc3)C2=O)n1", "note": "[Example 1102, 1-(6-(4-isopropyl-4H-1,2,4-triazol-3-yl)pyridin-2-yl)-3-(2-(methylsulfonyl)pyrimidin-5-yl)imidazolidin-2-one]", "IC50": "< 100"},
      {"smiles": "CC(c1ccc(N2CCOCC2)cc1)N1CCN(c2cccc(-c3nncn3C(C)C)n2)C1=O", "note": "(centres unmarked) [Example 1111, 1-(6-(4-isopropyl-4H-1,2,4-triazol-3-yl)pyridin-2-yl)-3-(1-(4-morpholinophenyl)ethyl)imidazolidin-2-one]", "IC50": "< 100"},
      {"smiles": "COCCCNC(=O)c1ccc(N2CCN(c3cccc(-c4nncn4C(C)C)n3)C2=O)cn1", "note": "[Example 1117, 5-(3-(6-(4-isopropyl-4H-1,2,4-triazol-3-yl)pyridin-2-yl)-2-oxoimidazolidin-1-yl)-N-(3-methoxypropyl)pyridine-2-carboxamide]", "IC50": "< 100"},
      {"smiles": "CNC(=O)C1CCN(c2ccc(N3CCN(c4cccc(-c5nncn5C(C)C)n4)C3=O)cn2)C1", "note": "(centres unmarked) [Example 1119, 1-(5-(3-(6-(4-isopropyl-4H-1,2,4-triazol-3-yl)pyridin-2-yl)-2-oxoimidazolidin-1-yl)pyridin-2-yl)-N-methylpyrrolidine-3-carboxamide]", "IC50": "< 50"},
      {"smiles": "CC(C)n1cnnc1-c1cccc(N2CCN(c3ccc(N4CCC(S(C)(=O)=O)CC4)nc3)C2=O)n1", "note": "[Example 1120, 1-(6-(4-isopropyl-4H-1,2,4-triazol-3-yl)pyridin-2-yl)-3-(6-(4-(methylsulfonyl)piperidin-1-yl)pyridin-3-yl)imidazolidin-2-one]", "IC50": "< 100"},
      {"smiles": "CC(C)n1cnnc1-c1cccc(N2CCN(c3ccc(N4CCC(N(C)C)CC4)nc3)C2=O)n1", "note": "[Example 1121, 1-(6-(4-(dimethylamino)piperidin-1-yl)pyridin-3-yl)-3-(6-(4-isopropyl-4H-1,2,4-triazol-3-yl)pyridin-2-yl)imidazolidin-2-one]", "IC50": "< 100"},
      {"smiles": "CNC(=O)C1CN(c2ccc(N3CCN(c4cccc(-c5nncn5C(C)C)n4)C3=O)cn2)C1", "note": "[Example 1122, 1-(5-(3-(6-(4-isopropyl-4H-1,2,4-triazol-3-yl)pyridin-2-yl)-2-oxoimidazolidin-1-yl)pyridin-2-yl)-N-methylazetidine-3-carboxamide]", "IC50": "< 100"},
      {"smiles": "CNC(=O)C1CCN(C(C)c2ccc(N3CCN(c4cccc(-c5nncn5C(C)C)n4)C3=O)cc2)CC1", "note": "(centres unmarked) [Example 1127, 1-(1-(4-(3-(6-(4-isopropyl-4H-1,2,4-triazol-3-yl)pyridin-2-yl)-2-oxoimidazolidin-1-yl)phenyl)ethyl)-N-methylpiperidine-4-carboxamide]", "IC50": "< 100"},
      {"smiles": "CC(C)n1cnnc1-c1cccc(N2CCN(c3ccnc(N4CCOCC4)c3)C2=O)n1", "note": "[Example 1132, 1-(6-(4-isopropyl-4H-1,2,4-triazol-3-yl)pyridin-2-yl)-3-(2-morpholinopyridin-4-yl)imidazolidin-2-one]", "IC50": "> 1000"}
    ]}
  ]
}
